Patent US20060276464A1, “Diarylsulfone sulfonamides and use thereof” (Wyeth, priority 2005, published 2006)
Where two headings read alike, the source gives them in different places.

Target: T1, SFRP-1 (Homo sapiens, UniProt Q8N474)
T1 sequence (Q8N474 32-314): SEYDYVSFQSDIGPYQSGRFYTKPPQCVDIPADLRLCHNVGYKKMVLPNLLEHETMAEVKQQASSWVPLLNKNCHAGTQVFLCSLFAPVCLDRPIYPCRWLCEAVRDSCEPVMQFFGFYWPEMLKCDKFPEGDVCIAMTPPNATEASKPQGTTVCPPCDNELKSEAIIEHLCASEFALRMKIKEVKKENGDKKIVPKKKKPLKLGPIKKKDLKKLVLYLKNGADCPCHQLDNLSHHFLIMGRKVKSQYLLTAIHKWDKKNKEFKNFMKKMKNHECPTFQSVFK
Experiment: Cell-based assay for in vitro measurement of SFRP-1/SARP2 antagonist activity (U2OS cells co-transfected with 16x TCF-tk-Luciferase reporter, Wnt and hSFRP-1);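 further: U2OS cells co-transfected with a TCF-tk luciferase reporter, a Wnt vector, hSFRP-1 or empty vector and CMV-βgal, luciferase luminescence read in cell lysates alongside βgal activity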
Conditions: U2OS

[1] = read-out: Fold Induction with SFRP-1, Conc 15 μM, with SFRP-1, fold induction over SFRP-1 control, single dose
[2] = read-out: Fold Induction without SFRP-1, Conc 15 μM, without SFRP-1, single dose

fold induction at 15 µM [1]	fold induction at 15 µM [2]	Compound
1.5	1.1	CC(C)(O)Cc1ccc(S(=O)(=O)c2ccccc2)cc1S(=O)(=O)NCCc1ccccc1 [Example 341, 2-(2-hydroxy-2-methylpropyl)-N-(2-phenylethyl)-5-(phenylsulfonyl)benzenesulfonamide]
2.9	1.1	Cc1cc(S(=O)(=O)c2ccccc2)cc(S(=O)(=O)NCCn2ccnc2)c1C [Example 347, N-[2-(1H-imidazol-1-yl)ethyl]-2,3-dimethyl-5-(phenylsulfonyl)benzenesulfonamide]
2.5	1.2	Cc1cc(S(=O)(=O)c2ccccc2)cc(S(=O)(=O)NCCCn2ccnc2)c1C [Example 348, N-[3-(1H-imidazol-1-yl)propyl]-2,3-dimethyl-5-(phenylsulfonyl)benzenesulfonamide]
2	1.2	Cc1cc(S(=O)(=O)c2ccccc2)cc(S(=O)(=O)NCCc2ccccn2)c1C [Example 349, 2,3-dimethyl-5-(phenylsulfonyl)-N-(2-pyridin-2-ylethyl)benzenesulfonamide]
1.8	1.3	Cc1cc(S(=O)(=O)c2ccccc2)cc(S(=O)(=O)NC2CCOCC2)c1C [Example 350, 2,3-dimethyl-5-(phenylsulfonyl)-N-(tetrahydro-2H-pyran-4-yl)benzenesulfonamide]
1.5	1.3	Cc1cc(S(=O)(=O)c2ccccc2)cc(S(=O)(=O)NCCC2CCOCC2)c1C [Example 351, 2,3-dimethyl-5-(phenylsulfonyl)-N-[2-(tetrahydro-2H-pyran-4-yl)ethyl]benzenesulfonamide]
1.7	1	Cc1ccc(S(=O)(=O)c2ccc(NC3CCCCC3)cc2)cc1S(=O)(=O)NCCCn1ccnc1 [Example 352, 5-{[4-(cyclohexylamino)phenyl]sulfonyl}-N-[3-(1H-imidazol-1-yl)propyl]-2-methylbenzenesulfonamide]
2.3	0.9	O=S(=O)(NC1CCOCC1)c1cc(S(=O)(=O)c2ccccc2)ccc1Cl [Example 361, 2-chloro-5-(phenylsulfonyl)-N-(tetrahydro-2H-pyran-4-yl)benzenesulfonamide]
1.2	1	Cc1ccc(S(=O)(=O)c2ccccc2)cc1S(=O)(=O)NC(=O)[C@@H](N)Cc1ccccc1 [Example 364, N-{[2-methyl-5-(phenylsulfonyl)phenyl]sulfonyl}-L-phenylalaninamide]
1.3	1.1	COC(=O)[C@@H](Cc1ccccc1)NS(=O)(=O)c1cc(S(=O)(=O)c2ccccc2)ccc1C [Example 365, methyl N-{[2-methyl-5-(phenylsulfonyl)phenyl]sulfonyl}-D-phenylalaninate]
2.4	1	Cc1ccc(S(=O)(=O)c2ccc(NC3CCOCC3)cc2)cc1S(=O)(=O)NCCCn1ccnc1 [Example 366, N-[3-(1H-imidazol-1-yl)propyl]-2-methyl-5-{[4-(tetrahydro-2H-pyran-4-ylamino)phenyl]sulfonyl}benzenesulfonamide]
1.9	0.7	Cc1ccc(S(=O)(=O)c2ccc(N[C@@H]3C[C@H]4CC[C@@H]3C4)cc2)cc1S(=O)(=O)NCCCn1ccnc1 [Example 369, 5-({4-[(1R,2R,4S)-bicyclo[2.2.1]hept-2-ylamino]phenyl}sulfonyl)-N-[3-(1H-imidazol-1-yl)propyl]-2-methylbenzenesulfonamide]
1.9	0.9	Cc1ccc(S(=O)(=O)c2ccc(Br)cc2)cc1S(=O)(=O)NC1CCOCC1 [Example 375, 5-[(4-bromophenyl)sulfonyl]-2-methyl-N-(tetrahydro-2H-pyran-4-yl)benzenesulfonamide]
1.5	1.1	Cc1ccc(S(=O)(=O)c2ccc(C#N)cc2)cc1S(=O)(=O)NC1CCOCC1 [Example 376, 5-[(4-cyanophenyl)sulfonyl]-2-methyl-N-(tetrahydro-2H-pyran-4-yl)benzenesulfonamide]
1.9	1.1	Cc1ccc(S(=O)(=O)c2ccccc2Cl)cc1S(=O)(=O)NCCCn1ccnc1 [Example 377, 5-[(2-chlorophenyl)sulfonyl]-N-[3-(1H-imidazol-1-yl)propyl]-2-methylbenzenesulfonamide]
0.5	0.6	CC(=O)c1ccc(S(=O)(=O)c2ccc(C)c(S(=O)(=O)NC3CCOCC3)c2)cc1 [Example 380, 5-[(4-acetylphenyl)sulfonyl]-2-methyl-N-(tetrahydro-2H-pyran-4-yl)benzenesulfonamide]
2.4	0.9	Cc1ccc(S(=O)(=O)c2ccccc2)cc1S(=O)(=O)NCC1CCOCC1 [Example 382, 2-methyl-5-(phenylsulfonyl)-N-(tetrahydro-2H-pyran-4-ylmethyl)benzenesulfonamide]

Further lines, the compound ahead of its results:

Compound	fold induction at 15 µM [1]	fold induction at 15 µM [2]
Cc1ccc(S(=O)(=O)c2ccc(C(C)C)cc2)cc1S(=O)(=O)NCCCn1ccnc1 [Example 338, N-[3-(1H-imidazol-1-yl)propyl]-5-[(4-isopropylphenyl)sulfonyl]-2-methylbenzenesulfonamide]	1.2	1
Cc1ccc(S(=O)(=O)c2ccc3ccccc3c2)cc1S(=O)(=O)NCCCn1ccnc1 [Example 339, N-[3-(1H-imidazol-1-yl)propyl]-2-methyl-5-(2-naphthylsulfonyl)benzenesulfonamide]	2.6	1.1
Cc1ccc(S(=O)(=O)c2ccc(Cl)c(Cl)c2)cc1S(=O)(=O)NCCCn1ccnc1 [Example 340, 5-[(3,4-dichlorophenyl)sulfonyl]-N-[3-(1H-imidazol-1-yl)propyl]-2-methylbenzenesulfonamide]	2.5	1
Cc1ccc(S(=O)(=O)c2cccc(Cl)c2)cc1S(=O)(=O)NCCCn1ccnc1 [Example 342, 5-[(3-chlorophenyl)sulfonyl]-N-[3-(1H-imidazol-1-yl)propyl]-2-methylbenzenesulfonamide]	3.3	1.1
Cc1cc(C)cc(S(=O)(=O)c2ccc(C)c(S(=O)(=O)NCCCn3ccnc3)c2)c1 [Example 343, 5-[(3,5-dimethylphenyl)sulfonyl]-N-[3-(1H-imidazol-1-yl)propyl]-2-methylbenzenesulfonamide]	2.8	1
Cc1ccc(S(=O)(=O)c2cc(Cl)ccc2Cl)cc1S(=O)(=O)NCCCn1ccnc1 [Example 345, 5-[(2,5-dichlorophenyl)sulfonyl]-N-[3-(1H-imidazol-1-yl)propyl]-2-methylbenzenesulfonamide]	1.6	1
Cc1ccc([S+]([O-])c2ccccc2)cc1S(=O)(=O)NCCCn1ccnc1 (centres unmarked) [Example 346, N-[3-(1H-imidazol-1-yl)propyl]-2-methyl-5-(phenylsulfinyl)benzenesulfonamide]	2.4	1.3
Cc1ccc(S(=O)(=O)c2ccc(NC(C)c3ccccc3)cc2)cc1S(=O)(=O)NCCCn1ccnc1 (centres unmarked) [Example 355, N-[3-(1H-imidazol-1-yl)propyl]-2-methyl-5-({4-[(1-phenylethyl)amino]phenyl}sulfonyl)benzenesulfonamide]	3.4	0.9
Cc1ccc(S(=O)(=O)c2cccs2)cc1S(=O)(=O)NCCCn1ccnc1 [Example 362, N-[3-(1H-imidazol-1-yl)propyl]-2-methyl-5-(2-thienylsulfonyl)benzenesulfonamide]	2.4	1.1
Cc1ccc(S(=O)(=O)c2ccoc2C)cc1S(=O)(=O)NCCCn1ccnc1 [Example 363, N-[3-(1H-imidazol-1-yl)propyl]-2-methyl-5-[(2-methyl-3-furyl)sulfonyl]benzenesulfonamide]	2.1	1.1
Cc1ccc(S(=O)(=O)c2ccc(NCCCOC(C)C)cc2)cc1S(=O)(=O)NCCCn1ccnc1 [Example 367, N-[3-(1H-imidazol-1-yl)propyl]-5-({4-[(3-isopropoxypropyl)amino]phenyl}sulfonyl)-2-methylbenzenesulfonamide]	2.2	0.9
Cc1ccc(S(=O)(=O)c2ccc(NCc3ccc(C(F)(F)F)cc3)cc2)cc1S(=O)(=O)NCCCn1ccnc1 [Example 374, N-[3-(1H-imidazol-1-yl)propyl]-2-methyl-5-[(4-{[4-(trifluoromethyl)benzyl]amino}phenyl)sulfonyl]benzenesulfonamide]	1.5	0.9
Cc1ccc(S(=O)(=O)c2ccccn2)cc1S(=O)(=O)NCCCn1ccnc1 [Example 378, N-[3-(1H-imidazol-1-yl)propyl]-2-methyl-5-(pyridin-2-ylsulfonyl)benzenesulfonamide]	1.7	1.1
Cc1ccc(S(=O)(=O)c2ccc(Cl)cc2Cl)cc1S(=O)(=O)NCCCn1ccnc1 [Example 379, 5-[(2,4-dichlorophenyl)sulfonyl]-N-[3-(1H-imidazol-1-yl)propyl]-2-methylbenzenesulfonamide]	1.8	0.9
